# Results published in ChEMBL document CHEMBL3414511, “Synthesis of a novel class of substituted benzothiophene or benzofuran derivatives as BMP-2 up-regulators and evaluation of the BMP-2-up-regulating effects in vitro and the effects on glucocorticoid-induced osteoporosis in rats” (Eur J Med Chem, 2015).
# Activity calls are given as the source filed them. The calls are words filed in the database; no cut-off is given here.
# Columns and labels:
# [1] = Upregulation of BMP-2 expression in mouse MC3T3-E1 cells at 0.4 uM after 24 hrs by luciferase reporter gene assay relative to control; assay type: functional, cell-based
# Rattus norvegicus [2] = assay: Toxicity in glucocorticoid-induced Wistar rat osteoporosis model assessed as white blood cells at 5 mg/kg/day, po administered six times a week for 3 months (reference value: 6.28 +/- 2.78 x 10^9/L); assay type: organism-based; set-up: route oral; conditions: in vivo
# Rattus norvegicus [3] = assay: Antiosteoporotic activity in glucocorticoid-induced Wistar rat osteoporosis model assessed as increase in trabecula thickness at 5 mg/kg/day, po administered six times a week for 3 months by toluidine blue staining-based light microscopic analysis relative to dexamethasone; assay type: functional, organism-based
# Rattus norvegicus [4] = assay: Toxicity in glucocorticoid-induced Wistar rat osteoporosis model assessed as neutrophilic granulocytes level at 5 mg/kg/day, po administered six times a week for 3 months (reference value: 31.95 +/- 8.33%); assay type: organism-based; set-up: route oral; conditions: in vivo
# Rattus norvegicus [5] = assay: Toxicity in glucocorticoid-induced Wistar rat osteoporosis model assessed as alanine transaminase level at 5 mg/kg/day, po administered six times a week for 3 months (reference value: 43.73 +/- 36.21 U/L); assay type: organism-based; set-up: route oral; conditions: in vivo
# Rattus norvegicus [6] = assay: Antiosteoporotic activity in glucocorticoid-induced Wistar rat osteoporosis model assessed as increase in trabecula number at 5 mg/kg/day, po administered six times a week for 3 months by toluidine blue staining-based light microscopic analysis relative to dexamethasone; assay type: functional, organism-based
# Rattus norvegicus [7] = assay: Antiosteoporotic activity in glucocorticoid-induced Wistar rat osteoporosis model assessed as trabecular bone volume at 5 mg/kg/day, po administered six times a week for 3 months by fluorescence assay (reference value: 33.09 +/- 5.15%); assay type: functional, Trabecula
# Rattus norvegicus [8] = assay: Antiosteoporotic activity in glucocorticoid-induced Wistar rat osteoporosis model assessed as mineral apposition rate at 5 mg/kg/day, po administered six times a week for 3 months by fluorescence assay (reference value: 1.06 +/- 0.27 micrometer/day); assay type: functional
# Rattus norvegicus [9] = assay: Antiosteoporotic activity in glucocorticoid-induced Wistar rat osteoporosis model assessed as increase in trabecula connectivity at 5 mg/kg/day, po administered six times a week for 3 months by toluidine blue staining-based light microscopic analysis relative to dexamethasone; assay type: functional, organism-based
# Rattus norvegicus [10] = assay: Antiosteoporotic activity in glucocorticoid-induced Wistar rat osteoporosis model assessed as trabecula resorption surface at 5 mg/kg/day, po administered six times a week for 3 months by fluorescence assay (reference value: 7.22 +/- 2.04%); assay type: functional
# Rattus norvegicus [11] = assay: Antiosteoporotic activity in glucocorticoid-induced Wistar rat osteoporosis model assessed as increase in trabecula area at 5 mg/kg/day, po administered six times a week for 3 months by toluidine blue staining-based light microscopic analysis relative to dexamethasone; assay type: functional, organism-based
# Rattus norvegicus [12] = assay: Toxicity in glucocorticoid-induced Wistar rat osteoporosis model assessed as lymph level at 5 mg/kg/day, po administered six times a week for 3 months (reference value: 50.35 +/- 12.96%); assay type: organism-based; set-up: route oral; conditions: in vivo
# Rattus norvegicus [13] = assay: Toxicity in glucocorticoid-induced Wistar rat osteoporosis model assessed as triglycerides level at 5 mg/kg/day, po administered six times a week for 3 months (reference value: 1.13 +/- 0.69 mmol/L); assay type: organism-based; set-up: route oral; conditions: in vivo
# Rattus norvegicus [14] = assay: Antiosteoporotic activity in glucocorticoid-induced Wistar rat osteoporosis model assessed as trabecula formation surface at 5 mg/kg/day, po administered six times a week for 3 months by fluorescence assay (reference value: 7.82 +/- 2.46%); assay type: functional
# Rattus norvegicus [15] = assay: Toxicity in glucocorticoid-induced Wistar rat osteoporosis model assessed as aspartate transaminase level at 5 mg/kg/day, po administered six times a week for 3 months (reference value: 177.55 +/- 116.98 U/L); assay type: organism-based; set-up: route oral; conditions: in vivo
# Rattus norvegicus [16] = assay: Toxicity in glucocorticoid-induced Wistar rat osteoporosis model assessed as effect on red blood cell specific volume at 30 mg/kg/day, po administered six times a week for 3 months; assay type: organism-based; set-up: route oral; conditions: in vivo
# Mus musculus [17] = assay: Acute toxicity in Kunming mouse assessed as shiny fur at 700 mg/kg, po administered for 3 days measured during compound dosing and following 14 days; assay type: organism-based; set-up: dose 700 mg/kg, route oral; conditions: in vivo, 336 h
# Rattus norvegicus [18] = assay: Toxicity in glucocorticoid-induced Wistar rat osteoporosis model assessed as effect on total protein level at 30 mg/kg/day, po administered six times a week for 3 months; assay type: organism-based; set-up: route oral; conditions: in vivo
# Rattus norvegicus [19] = assay: Toxicity in glucocorticoid-induced Wistar rat osteoporosis model assessed as effect on mean corpuscular hemoglobin concentration at 30 mg/kg/day, po administered six times a week for 3 months; assay type: organism-based; set-up: route oral; conditions: in vivo
# Rattus norvegicus [20] = assay: Toxicity in glucocorticoid-induced Wistar rat osteoporosis model assessed as aspartate transaminase level at 30 mg/kg/day, po administered six times a week for 3 months (reference value: 177.55 +/- 116.98 U/L); assay type: organism-based; set-up: route oral; conditions: in vivo
# Rattus norvegicus [21] = assay: Toxicity in glucocorticoid-induced Wistar rat osteoporosis model assessed as alanine transaminase level at 30 mg/kg/day, po administered six times a week for 3 months (reference value: 43.73 +/- 36.21 U/L); assay type: organism-based; set-up: route oral; conditions: in vivo
# Rattus norvegicus [22] = assay: Toxicity in glucocorticoid-induced Wistar rat osteoporosis model assessed as neutrophilic granulocytes level at 30 mg/kg/day, po administered six times a week for 3 months (reference value: 31.95 +/- 8.33%); assay type: organism-based; set-up: route oral; conditions: in vivo
# Rattus norvegicus [23] = assay: Toxicity in glucocorticoid-induced Wistar rat osteoporosis model assessed as effect on glucose level at 30 mg/kg/day, po administered six times a week for 3 months; assay type: organism-based; set-up: route oral; conditions: in vivo
# Rattus norvegicus [24] = assay: Toxicity in glucocorticoid-induced Wistar rat osteoporosis model assessed as effect on mean corpuscular volume at 30 mg/kg/day, po administered six times a week for 3 months; assay type: organism-based; set-up: route oral; conditions: in vivo
# Mus musculus [25] = assay: Acute toxicity in Kunming mouse assessed as behavioral changes at 700 mg/kg, po administered for 3 days measured during compound dosing and following 14 days; assay type: organism-based; set-up: dose 700 mg/kg, route oral; conditions: in vivo, 336 h
# Rattus norvegicus [26] = assay: Toxicity in glucocorticoid-induced Wistar rat osteoporosis model assessed as lymph level at 30 mg/kg/day, po administered six times a week for 3 months (reference value: 50.35 +/- 12.96%); assay type: organism-based; set-up: route oral; conditions: in vivo
# [27] = Upregulation of BMP-2 expression in mouse MC3T3-E1 cells at 4 uM after 24 hrs by luciferase reporter gene assay relative to control; assay type: functional, cell-based
# Rattus norvegicus [28] = assay: Toxicity in glucocorticoid-induced Wistar rat osteoporosis model assessed as effect on total bilirubin level at 30 mg/kg/day, po administered six times a week for 3 months; assay type: organism-based; set-up: route oral; conditions: in vivo
# Rattus norvegicus [29] = assay: Toxicity in glucocorticoid-induced Wistar rat osteoporosis model assessed as effect on red blood cell distribution width at 30 mg/kg/day, po administered six times a week for 3 months; assay type: organism-based; set-up: route oral; conditions: in vivo
# [30] = Acute toxicity in po dosed Kunming mouse administered for 3 days measured during compound dosing and following 14 days; assay type: organism-based; conditions: in vivo
# Rattus norvegicus [31] = assay: Antiosteoporotic activity in glucocorticoid-induced Wistar rat osteoporosis model assessed as densed trabecula at 30 mg/kg/day, po administered six times a week for 3 months by toluidine blue staining-based light microscopic analysis relative to dexamethasone; assay type: functional, organism-based
# Rattus norvegicus [32] = assay: Toxicity in glucocorticoid-induced Wistar rat osteoporosis model assessed as effect on hemoglobin at 30 mg/kg/day, po administered six times a week for 3 months; assay type: organism-based; set-up: route oral; conditions: in vivo
# Rattus norvegicus [33] = assay: Antiosteoporotic activity in glucocorticoid-induced Wistar rat osteoporosis model assessed as trabecular bone volume at 30 mg/kg/day, po administered six times a week for 3 months by fluorescence assay (reference value: 33.09 +/- 5.15%); assay type: functional, Trabecula
# Rattus norvegicus [34] = assay: Toxicity in glucocorticoid-induced Wistar rat osteoporosis model assessed as white blood cells at 30 mg/kg/day, po administered six times a week for 3 months (reference value: 6.28 +/- 2.78 x 10^9/L); assay type: organism-based; set-up: route oral; conditions: in vivo
# Rattus norvegicus [35] = assay: Antiosteoporotic activity in glucocorticoid-induced Wistar rat osteoporosis model assessed as trabecula formation surface at 30 mg/kg/day, po administered six times a week for 3 months by fluorescence assay (reference value: 7.82 +/- 2.46%); assay type: functional
# Rattus norvegicus [36] = assay: Toxicity in glucocorticoid-induced Wistar rat osteoporosis model assessed as effect on blood urea nitrogen level at 30 mg/kg/day, po administered six times a week for 3 months; assay type: organism-based; set-up: route oral; conditions: in vivo
# Rattus norvegicus [37] = assay: Antiosteoporotic activity in glucocorticoid-induced Wistar rat osteoporosis model assessed as mineral apposition rate at 30 mg/kg/day, po administered six times a week for 3 months by fluorescence assay (reference value: 1.06 +/- 0.27 micrometer/day); assay type: functional
# Rattus norvegicus [38] = assay: Toxicity in glucocorticoid-induced Wistar rat osteoporosis model assessed as effect on red blood cells at 30 mg/kg/day, po administered six times a week for 3 months; assay type: organism-based; set-up: route oral; conditions: in vivo
# Rattus norvegicus [39] = assay: Toxicity in glucocorticoid-induced Wistar rat osteoporosis model assessed as triglycerides level at 30 mg/kg/day, po administered six times a week for 3 months (reference value: 1.13 +/- 0.69 mmol/L); assay type: organism-based; set-up: route oral; conditions: in vivo
# Rattus norvegicus [40] = assay: Toxicity in glucocorticoid-induced Wistar rat osteoporosis model assessed as effect on albumin level at 30 mg/kg/day, po administered six times a week for 3 months; assay type: organism-based; set-up: route oral; conditions: in vivo
# Rattus norvegicus [41] = assay: Toxicity in glucocorticoid-induced Wistar rat osteoporosis model assessed as effect on platelets at 30 mg/kg/day, po administered six times a week for 3 months; assay type: organism-based; set-up: route oral; conditions: in vivo
# Rattus norvegicus [42] = assay: Toxicity in glucocorticoid-induced Wistar rat osteoporosis model assessed as effect on creatinine level at 30 mg/kg/day, po administered six times a week for 3 months; assay type: organism-based; set-up: route oral; conditions: in vivo
# Rattus norvegicus [43] = assay: Antiosteoporotic activity in glucocorticoid-induced Wistar rat osteoporosis model assessed as trabecula resorption surface at 30 mg/kg/day, po administered six times a week for 3 months by fluorescence assay (reference value: 7.22 +/- 2.04%); assay type: functional
structure (smiles),measurement,setting,value
CC[C@H](C)C(=O)O[C@H]1C[C@@H](C)C=C2C=C[C@H](C)[C@H](CC[C@@H]3C[C@@H](O)CC(=O)O3)[C@H]21,Activity,[1],20.9%
O=C(c1ccc(OCCN2CCCCC2)cc1)c1c(-c2ccc(O)cc2)sc2cc(O)ccc12 [RALOXIFENE],Activity,Rattus norvegicus [2],2.94 ×10⁹ /L
same,Activity,Rattus norvegicus [3],Active
same,Activity,Rattus norvegicus [4],40.58%
same,Activity,Rattus norvegicus [5],35.09 U/L
same,Activity,Rattus norvegicus [6],Active
same,Activity,Rattus norvegicus [7],34.35%
same,Activity,Rattus norvegicus [8],1.16 micrometer/day
same,Activity,Rattus norvegicus [9],Active
same,Activity,Rattus norvegicus [10],7.82%
same,Activity,Rattus norvegicus [11],Active
same,Activity,Rattus norvegicus [12],39.05%
same,Activity,Rattus norvegicus [13],0.76 mmol/L
same,Activity,Rattus norvegicus [14],7.04%
same,Activity,Rattus norvegicus [15],115.27 U/L
COC(=O)c1ccc2cc(C(C)=O)sc2c1,Activity,Rattus norvegicus [16],Non-toxic
same,Activity,Mus musculus [17],Non-toxic
same,Activity,Rattus norvegicus [18],Non-toxic
same,Activity,Rattus norvegicus [19],Non-toxic
same,Activity,Rattus norvegicus [20],119.08 U/L
same,Activity,Rattus norvegicus [21],31.55 U/L
same,Activity,Rattus norvegicus [22],48.93%
same,Activity,Rattus norvegicus [23],Non-toxic
same,Activity,Rattus norvegicus [24],Non-toxic
same,Activity,Mus musculus [25],Non-toxic
same,Activity,Rattus norvegicus [26],34.98%
same,Activity,[27],85.2%
same,Activity,Rattus norvegicus [28],Non-toxic
same,Activity,Rattus norvegicus [29],Non-toxic
same,LD50 at 336 h,[30],> 700 mg/kg
same,Activity,Rattus norvegicus [31],Active
same,Activity,Rattus norvegicus [32],Non-toxic
same,Activity,Rattus norvegicus [33],24.72%
same,Activity,Rattus norvegicus [34],4.52 ×10⁹ /L
same,Activity,Rattus norvegicus [35],5.95%
same,Activity,Rattus norvegicus [36],Non-toxic
same,Activity,Rattus norvegicus [37],0.99 micrometer/day
same,Activity,Rattus norvegicus [38],Non-toxic
same,Activity,Rattus norvegicus [39],0.52 mmol/L
same,Activity,Rattus norvegicus [40],Non-toxic
same,Activity,Rattus norvegicus [41],Non-toxic
same,Activity,Rattus norvegicus [42],Non-toxic
same,Activity,Rattus norvegicus [43],9.52%
